Results on five compounds are retold here after patent publication US20100048714A1, “Methods and Compositions Related to Inhibition of Ceramide Synthesis” (University of Utah Research Foundation, priority 2006, published 2010).

The test system of assay [1] is Sprague-Dawley rats. Description: Glucose tolerance test (glucose 1 g/kg IP) in dexamethasone-treated rats. The class given is in vivo, rat. Particulars: dexamethasone vs vehicle. As to the method: (§1) (A) Sprague-Dawley rats were treated with myriocin (300 μg/Kg, IP, solid bars) or saline (open bars) for two weeks prior to giving administering dexamethasone (40 μg/Kg, IP) or vehicle (5% ethanol) every 12 hours for 36 hours. Animals were euthanized by CO2 inhalation, livers were removed, and ceramide levels were assessed as described in SOM-Methods. Shown are mean ceramide levels+/−S.E.M, n=6 per group. The asterisk denotes that the sample was statistically different from vehicle-treated controls, p<0.05, student's t-test. (B) Livers were obtained as in A, above, and protein and mRNA were extracted as described in SOM-Methods. Levels of transcripts (solid bars) encoding serine palimitoyl transferase isoforms 1 and 2 (SPT1 and SPT2), dihydroceramide synthases (DCS) TL1, UOG, and TRH3, glucosylceramide synthase (GCS), and acid ceramidase (AC) transcripts were obtained by reverse-transcriptase polymerase chain reaction, normalized to β-actin. SPT2 protein levels (white bars) were detected by immunoblotting with an antibody from Cayman Chemicals (Ann Arbor, Mich.) and quantified on a Kodak Image Station 2000R (Rochester, N.Y.). Data represent the fold-change in transcript or protein in dexamethasone-treated animals relative to vehicle controls. […] (C and D) Rats were challenged with glucose (1 g/kg) given intraperitoneally (IP) following treatment with dexamethasone (squares), ethanol carrier (triangles), myriocin (open shapes), or saline (solid shapes) as in A, above. Tail vein blood (3 μl) was sampled for glucose (C)(using the Glucometer Elite from Bayer Corp., Tarrytown, N.Y.) or insulin (D) (using an Elisa kit from Linco Diagnostics, Springfield, Mo.). […] (E-G) Hyperinsulinemic euglycemic clamps were performed on animals (n=4 per group) treated as in A, above, as described in SOM-Methods. Data from animals receiving myriocin are depicted in solid bars. (E) The glucose infusion rate required to maintain normal glycemia during insulin infusion ([…]) was calculated as the average infusion rate during the 60 minute steady state. (F) Hepatic glucose output was estimated by the disappearance of [^14C] glucose from a bolus dose given during the steady state minus the glucose infusion rate. (G) Disappearance of a bolus dose of [^3H] 2-deoxyglucose from the bloodstream was used to estimate the rate of whole body glucose uptake.
Tail vein blood (3 μl) was sampled for glucose determination (Hitachi 911 clinical chemistry analyzer, Roche, Indianapolis, Ind. or Glucometer Elite, Bayer Corp., Tarrytown, N.Y.)-30 minutes, immediately before and 15, 30, 45, 60, 90, and 120 min after glucose administration. Additionally, serum was collected and analyzed for insulin by Elisa (Linco Diagnostics, Springfield, Mo.).

Assay [2] deals with Sprague dawley rats. The experiment in a line: Hyperinsulinemic euglycemic clamps of dexamethasone treated rats. The format is in vivo, rat. To be noted: plasma, Dexamethasone-treated (Saline or Myriocin), mean ± standard error, n=4. On the procedure: as §1
To definitively evaluate effects on insulin sensitivity, as well as to distinguish whether the treatment protocols differentially affected glucose uptake in skeletal muscle or hepatic output by the liver, hyperinsulinemic-euglycemic clamps with D-[U-^14C] glucose and 2-deoxy-D-[2,6-^3H] glucose tracers were performed.
Clamps were performed in conscious unrestrained animals using swivels and tethers (Instech, Plymouth Meeting, Pa.) to allow uninterrupted movement of the animal without disruption of infusion lines. Hyperinsulinemia was initiated by intravenous infusion of insulin (10 mU/kg/min at a flow rate of 4 μL/min). Blood was sampled from arterial lines in 7 minute intervals and analyzed with a Beckman Glucose analyzer II (Beckman Coulter, Fullerton, Calif.). Euglycemia was maintained by variable infusion of 20% dextrose. Steady state was achieved approximately 90 minutes after initiating hyperinsulinemia and maintained for 30 minutes. Glucose infusion rates were calculated as the average glucose infusion rate during the 30 minute steady state. Additional blood samples were taken before initiating hyperinsulinemia and at the end of the clamp for analysis of insulin and free fatty acids.

For assay [3], the system named is Sprague dawley rats. The description is as above. The format is in vivo, rat. To be noted: plasma, 60 minute steady state; Dexamethasone-treated (Saline or Myriocin); mean ± standard error, n=4.
Assay [4] relates to Sprague-Dawley rats. The experiment in a line: Lipid infusion with hyperinsulinemic euglycemic clamps. The class given is in vivo, rat. To be noted: for Glucose, During Clamp / FFA, Before Clamp / FFA, Before Infusion / FFA, During Clamp / Glucose, Before Clamp / Glucose, Before Infusion / Insulin, Before Clamp / Insulin, Before Infusion / Insulin, During Clamp: plasma, mean ± standard error, n=4; for Glucose, During Clamp: 30 minute steady state. The source says: The more common mechanism by which insulin resistance likely develops in the obese is through the accumulation of fats in tissues not-suited for lipid storage. Indeed, intramyocellular lipid levels inversely correlate with insulin sensitivity, and are one of the best predictors of insulin resistance in humans. To mimic this condition in rats, a 20% lard oil-heparin infusate was delivered into the bloodstream of Sprague-Dawley rats via jugular catheters. […] To assess muscle insulin sensitivity during the infusion, hyperinsulinemic-euglycemic clamps were performed on conscious, unrestrained rats during the terminal 90 minutes of the protocol. Lard oil infusion decreased insulin-stimulated glucose disposal to 47% of glycerol treated control subjects (FIG. 3C). […] Differences in the glucose infusion rats could not be accounted for by the slight differences in the glucose concentration that was achieved during the clamp nor to differences in steady-state insulin concentrations (Table 3).
Male Sprague-Dawley rats (˜250 grams) were randomly divided into nine different groups. Glycerol, 20% lard oil, or 20% soy oil emulsions were prepared as previously described (Stein 1997) and infused at a constant rate of 5 mL/Kg/hour. To activate lipoprotein lipase, heparin (6 units/hour) was added to the triglyceride emulsions. Lipids were infused in animals treated with control injections (normal saline), myriocin (100 μg/Kg IP) or cycloserine (50 mg/Kg IP). Drugs were given 12 hours prior to lipid infusion and equivalent doses were given intravenously at the time of infusion. […] Following lipid infusion animals were deeply anesthetized with sodium pentobarbital and soleus muscles were rapidly dissected out and rapidly frozen in liquid nitrogen.
Clamps were performed in conscious unrestrained animals using swivels and tethers (Instech, Plymouth Meeting, Pa.) to allow uninterrupted movement of the animal without disruption of infusion lines. Hyperinsulinemia was initiated by intravenous infusion of insulin (10 mU/kg/min at a flow rate of 4 μL/min).

The test system of assay [5] is soleus muscles. Description: Isolated soleus muscle strips incubated with free fatty acids. Particulars: cycloserine 1 mM or myriocin 10 μM.
Assay [6] deals with T1, DES 1 (Homo sapiens, UniProt O15121).
T1 sequence (O15121 1-323): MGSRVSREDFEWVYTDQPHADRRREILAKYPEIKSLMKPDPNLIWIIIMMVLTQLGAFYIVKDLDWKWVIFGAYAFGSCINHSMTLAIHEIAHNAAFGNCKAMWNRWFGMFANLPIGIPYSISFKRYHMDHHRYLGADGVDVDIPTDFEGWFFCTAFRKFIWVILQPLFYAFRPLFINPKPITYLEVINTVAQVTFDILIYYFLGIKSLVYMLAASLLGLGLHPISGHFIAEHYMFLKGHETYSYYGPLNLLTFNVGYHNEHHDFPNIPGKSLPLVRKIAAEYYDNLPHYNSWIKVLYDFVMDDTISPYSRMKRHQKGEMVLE
Particulars: Zheng et al. 2006; Szkudelski et al. 2006; cited from earlier work.

Assay [7] concerns genes which control ceramide synthesis or degradation. Description: RT-PCR of genes which control ceramide synthesis or degradation after TNFα. The class given is cell-based. On the procedure:
Using RT-PCR, mRNA levels of serine palmitoyltransferase subunits (LCB1 and LCB2), acid ceramidase (AC), glucosylceramide synthase (GCS), ceramide kinase (CerK), and ceramide synthase isoforms 1-6 (Cers/Lass 1-6) were evaluated.
The possibility that TNFαα-stimulation of lipolysis can account for the increase in ceramide by stimulating the formation of intracellular palmitoyl-CoA, which could serve as a precursor for ceramide biosynthesis, was considered. […] Instead, it appears that TNFα regulates the expression or activity of enzymes that control intracellular ceramide levels. Using RT-PCR, changes in mRNA levels of genes which control ceramide synthesis or degradation were evaluated. […] The analysis was extended to consider several ceramide synthase (CerS/LASS) isoforms, which selectively catalyze the incorporation of distinct fatty acids into the sphinganine backbone. TNFα-induced an impressive 8 and 5-fold increase in CerS1 and CerS4, respectively. These enzymes preferentially catalyze the production of ceramide species containing the stearate fatty acid.

Where [8] appears, read: Intralipid infusion, with or without myriocin or cycloserine.
Setting [9] is: lard oil infusion, with or without myriocin or cycloserine.

Turning to `C[C@@H]1C[C@H]2[C@@H]3CCC4=CC(=O)C=C[C@]4(C)[C@@]3(F)[C@@H](O)C[C@]2(C)[C@@]1(O)C(=O)CO` [Dexamethasone], in assay [1], the “increase in fasting blood glucose” value came to 13% and the “increase in fasting insulin concentrations” value turned out to be 2.8 fold. The “Insulin, During Clamp” value in assay [2] (steady state) is 6.7 ± 1.3 ng/mL. In assay [2] (Before Clamp by layout), this compound returned an FFA of 211 ± 38 µM. In assay [2], the “Glucose, Before Clamp” value is reported as 139.0 ± 3.1 mg/dL and the “Insulin, Before Clamp” value is 4.36 ± 2.34 ng/mL. Besides, the “Glucose, During Clamp” value in assay [3] is listed as 131.1 ± 5.1 mg/dL.
For the compound `N[C@@H]1CON=C1O` [L-cycloserine], in assay [4] (setting [8]), the “insulin-stimulated glucose disposal / insulin resistance” value is reported as “Neither myriocin nor cycloserine prevented” and the “muscle DAG levels” value is given as “Neither myriocin nor cycloserine prevented”. Also, in assay [4] (setting [9]), the “ceramide in skeletal muscle” value was “blocked ceramide synthesis” and the “diacylglycerol (DAG) in muscle” value is recorded as “Neither myriocin nor cycloserine reduced DAG”. The “glucose utilization in clamp” value in assay [4] (lard-infused animals) was “restored glucose utilization”. In assay [4] (Lipid: Glycerol), the “Glucose, During Clamp” value was 111.0 ± 3.0 mg/dL; the “FFA, Before Clamp” value came to 0.489 ± 0.10 mM; the “FFA, Before Infusion” value worked out at 0.562 ± 0.10 mM; the “FFA, During Clamp” value is reported as 0.501 ± 0.11 mM. For the same compound, in assay [4] (Lipid: Glycerol), the “Glucose, Before Clamp” value came to 113.0 ± 3.2 mg/dL; the “Glucose, Before Infusion” value amounted to 104.0 ± 13.1 mg/dL; the “Insulin, Before Clamp” value was found to be 9.19 ± 0.20 ng/mL; the “Insulin, Before Infusion” value is 0.659 ± 0.11 ng/mL. Further, the “Insulin, During Clamp” value in assay [4] (Lipid: Glycerol) came out at 12.08 ± 0.03 ng/mL. Moreover, in assay [4] (Lipid: Lard oil (PBS or drug)), the “Glucose, During Clamp” value was 106.6 ± 2.6 mg/dL; the “FFA, Before Clamp” value was determined as 1.53 ± 0.19 mM; the “FFA, Before Infusion” value is recorded as 0.672 ± 0.14 mM; the “FFA, During Clamp” value stood at 2.12 ± 0.89 mM. Further, in assay [4] (Lipid: Lard oil (PBS or drug)), the “Glucose, Before Clamp” value worked out at 101.6 ± 7.1 mg/dL; the “Glucose, Before Infusion” value came out at 100.6 ± 6.4 mg/dL; the “Insulin, Before Clamp” value is recorded as 2.18 ± 0.76 ng/mL; the “Insulin, Before Infusion” value is listed as 0.793 ± 0.15 ng/mL. The “Insulin, During Clamp” value in assay [4] (Lipid: Lard oil (PBS or drug)) worked out at 16.27 ± 2.69 ng/mL. In addition, in assay [4] (Lipid: Soy oil (PBS or drug)), the “Glucose, During Clamp” value is on record as 106.2 ± 0.44 mg/dL; the “FFA, Before Clamp” value was 1.51 ± 0.23 mM; the “FFA, Before Infusion” value is given as 1.02 ± 0.32 mM; the “FFA, During Clamp” value stood at 2.10 ± 0.77 mM. Moreover, in assay [4] (Lipid: Soy oil (PBS or drug)), the “Glucose, Before Clamp” value is on record as 124.0 ± 10.8 mg/dL; the “Glucose, Before Infusion” value came to 102.3 ± 7.1 mg/dL; the “Insulin, Before Clamp” value came out at 3.13 ± 1.0 ng/mL; the “Insulin, Before Infusion” value is reported as 1.12 ± 0.17 ng/mL. Moreover, in assay [4] (Lipid: Soy oil (PBS or drug)), the “Insulin, During Clamp” value is given as 14.38 ± 0.67 ng/mL. Also, in assay [5] (1 mM linoleate), the “linoleate effects on 2-DOG uptake” value is “did not alter linoleate effects” and the “linoleate effects on DAG accumulation” value was “did not alter linoleate effects”. For the same compound, in assay [5] (1 mM palmitate), the “DAG in palmitate-treated muscles” value is given as “without affecting DAG”, the “palmitate effect on insulin-stimulated 2-deoxyglucose uptake” value is “completely negated the antagonistic effects of palmitate” and the palmitate-induced ceramide accumulation entry was “prevented palmitate-induced ceramide accumulation”.
Consider `CC1=C(/C=C/C(C)=C/C=C/C(C)=C/C(=O)Nc2ccc(O)cc2)C(C)(C)CCC1` [fenretinide], for which the “inhibition of DES 1” value in assay [6] was “inhibit DES 1”.
For the compound `Oc1ccc(C=Cc2cc(O)cc(O)c2)cc1` [resveratrol], the “inhibition of DES 1” value in assay [6] is reported as “inhibit DES 1”.
Turning to TNFα, in assay [7], the “expression of glucosylceramide synthase (mRNA)” value is recorded as “markedly reduced expression”; the “expression of serine palmitoyltransferase subunits LCB1 and LCB2 (mRNA)” value is reported as “increased expression”; the “increase in CerS1 (mRNA)” value is 8 fold; the “increase in CerS4 (mRNA)” value is on record as 5 fold.
